Data taken from US20220169629A1, “PESTICIDALLY ACTIVE DIAZINE-AMIDE COMPOUNDS” (SYNGENTA CROP PROTECTION AG, priority 2019, published 2022).

What was measured:
Format in all cases: in vivo
[1] = test system: Plutella xylostella (diamondback moth); test: Example B10: Plutella xylostella (diamondback moth), 96-well artificial diet; settings: 216 h, application rate of 500 ppm, 9 days after infestation, eggs/L1 larvae
Procedure: Example B10: Plutella xylostella (Diamondback Moth)
96-well microtiter plates containing artificial diet were treated with aqueous test solutions, prepared from 10′000 ppm DMSO stock solutions, by a liquid handling robot. After drying, eggs (˜30 per well) were infested onto a netted lid which was suspended above the diet. The eggs hatch and L1 larvae move down to the diet. The samples were assessed for mortality 9 days after infestation.

[2] = test system: Chilo suppressalis (striped rice stemborer); test: Example B4: Chilo suppressalis (striped rice stemborer), artificial diet, L2 larvae; settings: 144 h, application rate of 200 ppm, 6 days after infestation, L2 larvae on artificial diet, read-out: control in at least one of the three categories (mortality, anti-feeding or growth inhibition)
Procedure: Example B4: Chilo suppressalis (Striped rice stemborer)
24-well microtiter plates with artificial diet were treated with aqueous test solutions prepared from 10′000 ppm DMSO stock solutions by pipetting. After drying, the plates were infested with L2 larvae (6-8 per well). The samples were assessed for mortality, anti-feeding effect, and growth inhibition in comparison to untreated samples 6 days after infestation. Control of Chilo suppressalis by a test sample is given when at least one of the categories mortality, anti-feedant effect, and growth inhibition is higher than the untreated sample.

[3] = test system: Plutella xylostella (diamond back moth); test: Example B5: Plutella xylostella (diamond back moth), artificial diet, 24-well, eggs; settings: 192 h, application rate of 200 ppm, 8 days after infestation, read-out: control in at least one of the two categories (mortality or growth inhibition)
Procedure: Example B5: Plutella xylostella (Diamond Back Moth)
24-well microtiter plates with artificial diet were treated with aqueous test solutions prepared from 10′000 ppm DMSO stock solutions by pipetting. After drying, Plutella eggs were pipetted through a plastic stencil onto a gel blotting paper and the plate was closed with it. The samples were assessed for mortality and growth inhibition in comparison to untreated samples 8 days after infestation.

[4] = test system: Spodoptera littoralis (Egyptian cotton leaf worm); test: Example B7: Spodoptera littoralis (Egyptian cotton leaf worm), sprayed cotton leaf discs, L1 larvae; settings: foliar, 72 h, application rate of 200 ppm, 3 days after infestation, L1 larvae on cotton leaf discs, read-out: control in at least one of the three categories (mortality, anti-feeding or growth inhibition)
Procedure: Example B7: Spodoptera littoralis (Egyptian Cotton Leaf Worm)
Cotton leaf discs were placed onto agar in 24-well microtiter plates and sprayed with aqueous test solutions prepared from 10′000 ppm DMSO stock solutions. After drying the leaf discs were infested with five L1 larvae. The samples were assessed for mortality, anti-feeding effect, and growth inhibition in comparison to untreated samples 3 days after infestation. Control of Spodoptera littoralis by a test sample is given when at least one of the categories mortality, anti-feedant effect, and growth inhibition is higher than the untreated sample.

[5] = test system: Diabrotica balteata (corn root worm); test: Example B1: Diabrotica balteata (corn root worm), sprayed maize sprouts, L2 larvae; settings: 96 h, application rate of 200 ppm, 4 days after infestation, L2 larvae on maize sprouts, read-out: control in at least one of the two categories (mortality or growth inhibition)
Procedure: Example B1: Diabrotica Balteata (Corn Root Worm)
Maize sprouts placed onto an agar layer in 24-well microtiter plates were treated with aqueous test solutions prepared from 10′000 ppm DMSO stock solutions by spraying. After drying, the plates were infested with L2 larvae (6 to 10 per well). The samples were assessed for mortality and growth inhibition in comparison to untreated samples 4 days after infestation.

CC(NC(=O)c1cc(Cl)cc(C(F)(F)F)c1)c1nccnc1-c1ccc(OCC(F)F)cn1 (stereo not drawn) [Compound P20, 3-chloro-N-[1-[3-[5-(2,2-difluoroethoxy)-2-pyridyl]pyrazin-2-yl]ethyl]-5-(trifluoromethyl)benzamide]
≥ 80%: mortality at 500 ppm [1] | control at 200 ppm [2] | percent control (mortality or growth inhibition) at 200 ppm [3] | percent control (mortality, anti-feeding or growth inhibition) at 200 ppm [4]

CC(NC(=O)c1cc(Cl)cc(C(F)(F)F)c1)c1nccnc1-c1ccc(OC(F)F)cn1 (stereo not drawn) [Compound P8, 3-chloro-N-[1-[3-[5-(difluoromethoxy)-2-pyridyl]pyrazin-2-yl]ethyl]-5-(trifluoromethyl)benzamide]
≥ 80%: percent control (mortality or growth inhibition) at 200 ppm [5] | control at 200 ppm [2] | percent control (mortality or growth inhibition) at 200 ppm [3] | percent control (mortality, anti-feeding or growth inhibition) at 200 ppm [4]

CC(NC(=O)c1cc(Br)cc(C(F)(F)F)c1)c1nccnc1-c1ccc(OCC(F)(F)F)cn1 (stereo not drawn) [Compound P18, 3-bromo-N-[1-[3-[5-(2,2,2-trifluoroethoxy)-2-pyridyl]pyrazin-2-yl]ethyl]-5-(trifluoromethyl)benzamide]
≥ 80%: mortality at 500 ppm [1] | control at 200 ppm [2] | percent control (mortality or growth inhibition) at 200 ppm [3] | percent control (mortality, anti-feeding or growth inhibition) at 200 ppm [4]

CC(NC(=O)c1cc(OCC(F)(F)F)cc(C(F)(F)F)c1)c1nccnc1-c1ncc(OCC(F)F)cn1 (stereo not drawn) [Compound P38, N-[1-[3-[5-(2,2-difluoroethoxy)pyrimidin-2-yl]pyrazin-2-yl]ethyl]-3-(2,2,2-trifluoroethoxy)-5-(trifluoromethyl)benzamide]
≥ 80%: control at 200 ppm [2] | percent control (mortality or growth inhibition) at 200 ppm [3] | percent control (mortality, anti-feeding or growth inhibition) at 200 ppm [4]

CC(NC(=O)c1cc(Br)cc(C(F)(F)F)c1)c1nccnc1-c1ccc(OCC(F)F)cn1 (stereo not drawn) [Compound P19, 3-bromo-N-[1-[3-[5-(2,2-difluoroethoxy)-2-pyridyl]pyrazin-2-yl]ethyl]-5-(trifluoromethyl)benzamide]
≥ 80%: percent control (mortality or growth inhibition) at 200 ppm [5] | mortality at 500 ppm [1] | control at 200 ppm [2] | percent control (mortality or growth inhibition) at 200 ppm [3] | percent control (mortality, anti-feeding or growth inhibition) at 200 ppm [4]

CC(NC(=O)c1cc(OCC(F)(F)F)cc(C(F)(F)F)c1)c1nccnc1-c1ccc(OC(F)F)cn1 (stereo not drawn) [Compound P6, N-[1-[3-[5-(difluoromethoxy)-2-pyridyl]pyrazin-2-yl]ethyl]-3-(2,2,2-trifluoroethoxy)-5-(trifluoromethyl)benzamide]
≥ 80%: percent control (mortality or growth inhibition) at 200 ppm [5] | control at 200 ppm [2] | percent control (mortality or growth inhibition) at 200 ppm [3] | percent control (mortality, anti-feeding or growth inhibition) at 200 ppm [4]

CC(NC(=O)c1cc(OCC(F)(F)F)cc(C(F)(F)F)c1)c1nccnc1-c1ccc(OCC(F)(F)F)cn1 (stereo not drawn) [Compound P14, 3-(2,2,2-trifluoroethoxy)-N-[1-[3-[5-(2,2,2-trifluoroethoxy)-2-pyridyl]pyrazin-2-yl]ethyl]-5-(trifluoromethyl)benzamide]
≥ 80%: mortality at 500 ppm [1] | control at 200 ppm [2] | percent control (mortality or growth inhibition) at 200 ppm [3]

CC(NC(=O)c1cc(Cl)cc(C(F)(F)F)c1)c1nccnc1-c1ccc(C#N)cn1 (stereo not drawn) [Compound P7, 3-chloro-N-[1-[3-(5-cyano-2-pyridyl)pyrazin-2-yl]ethyl]-5-(trifluoromethyl)benzamide]
≥ 80%: percent control (mortality or growth inhibition) at 200 ppm [5] | control at 200 ppm [2] | percent control (mortality or growth inhibition) at 200 ppm [3] | percent control (mortality, anti-feeding or growth inhibition) at 200 ppm [4]

CC(NC(=O)c1cc(Cl)cc(C(F)(F)F)c1)c1nccnc1-c1ncc(OCC(F)F)cn1 (stereo not drawn) [Compound P36, 3-chloro-N-[1-[3-[5-(2,2-difluoroethoxy)pyrimidin-2-yl]pyrazin-2-yl]ethyl]-5-(trifluoromethyl)benzamide]
≥ 80%: percent control (mortality or growth inhibition) at 200 ppm [3] | percent control (mortality, anti-feeding or growth inhibition) at 200 ppm [4]

CC(NC(=O)c1cc(Br)cc(C(F)(F)F)c1)c1nccnc1-c1ccc(OC(F)F)cn1 (stereo not drawn) [Compound P11, 3-bromo-N-[1-[3-[5-(difluoromethoxy)-2-pyridyl]pyrazin-2-yl]ethyl]-5-(trifluoromethyl)benzamide]
≥ 80%: percent control (mortality or growth inhibition) at 200 ppm [5] | control at 200 ppm [2] | percent control (mortality or growth inhibition) at 200 ppm [3] | percent control (mortality, anti-feeding or growth inhibition) at 200 ppm [4]

CC(NC(=O)c1cc(Br)cc(C(F)(F)F)c1)c1nccnc1-c1ccc(C#N)cn1 (stereo not drawn) [Compound P10, 3-bromo-N-[1-[3-(5-cyano-2-pyridyl)pyrazin-2-yl]ethyl]-5-(trifluoromethyl)benzamide]
≥ 80%: percent control (mortality or growth inhibition) at 200 ppm [5] | control at 200 ppm [2] | percent control (mortality or growth inhibition) at 200 ppm [3] | percent control (mortality, anti-feeding or growth inhibition) at 200 ppm [4]

CC(NC(=O)c1cc(C(F)(F)F)cc(C(F)(F)F)c1)c1nccnc1-c1ccc(C#N)cn1 (stereo not drawn) [Compound P31, N-[1-[3-(5-cyano-2-pyridyl)pyrazin-2-yl]ethyl]-3,5-bis(trifluoromethyl)benzamide]
≥ 80%: mortality at 500 ppm [1] | control at 200 ppm [2] | percent control (mortality or growth inhibition) at 200 ppm [3] | percent control (mortality, anti-feeding or growth inhibition) at 200 ppm [4]

CC(NC(=O)c1cc(OCC(F)F)cc(C(F)(F)F)c1)c1nccnc1-c1ccc(OCC(F)(F)F)cn1 (stereo not drawn) [Compound P17, 3-(2,2-difluoroethoxy)-N-[1-[3-[5-(2,2,2-trifluoroethoxy)-2-pyridyl]pyrazin-2-yl]ethyl]-5-(trifluoromethyl)benzamide]
≥ 80%: mortality at 500 ppm [1] | percent control (mortality or growth inhibition) at 200 ppm [3] | percent control (mortality, anti-feeding or growth inhibition) at 200 ppm [4]

CC(NC(=O)c1cc(OC(F)F)cc(C(F)(F)F)c1)c1nccnc1-c1ccc(OCC(F)(F)F)cn1 (stereo not drawn) [Compound P12, 3-(difluoromethoxy)-N-[1-[3-[5-(2,2,2-trifluoroethoxy)-2-pyridyl]pyrazin-2-yl]ethyl]-5-(trifluoromethyl)benzamide]
≥ 80%: mortality at 500 ppm [1] | control at 200 ppm [2] | percent control (mortality or growth inhibition) at 200 ppm [3] | percent control (mortality, anti-feeding or growth inhibition) at 200 ppm [4]

CC(NC(=O)c1cc(OCC(F)F)cc(C(F)(F)F)c1)c1nccnc1-c1ccc(OC(F)F)cn1 (stereo not drawn) [Compound P2, 3-(2,2-difluoroethoxy)-N-[1-[3-[5-(difluoromethoxy)-2-pyridyl]pyrazin-2-yl]ethyl]-5-(trifluoromethyl)benzamide]
≥ 80%: control at 200 ppm [2] | percent control (mortality or growth inhibition) at 200 ppm [3] | percent control (mortality, anti-feeding or growth inhibition) at 200 ppm [4]

CC(NC(=O)c1cc(Br)cc(C(F)(F)F)c1)c1nccnc1-c1ncc(OCC(F)(F)F)cn1 (stereo not drawn) [Compound P9, 3-bromo-N-[1-[3-[5-(2,2,2-trifluoroethoxy)pyrimidin-2-yl]pyrazin-2-yl]ethyl]-5-(trifluoromethyl)benzamide]
≥ 80%: percent control (mortality or growth inhibition) at 200 ppm [5] | control at 200 ppm [2] | percent control (mortality or growth inhibition) at 200 ppm [3] | percent control (mortality, anti-feeding or growth inhibition) at 200 ppm [4]

CC(NC(=O)c1cc(OC(F)F)cc(C(F)(F)F)c1)c1nccnc1-c1ccc(OC(F)F)cn1 (stereo not drawn) [Compound P4, 3-(difluoromethoxy)-N-[1-[3-[5-(difluoromethoxy)-2-pyridyl]pyrazin-2-yl]ethyl]-5-(trifluoromethyl)benzamide]
≥ 80%: percent control (mortality or growth inhibition) at 200 ppm [5] | control at 200 ppm [2] | percent control (mortality or growth inhibition) at 200 ppm [3] | percent control (mortality, anti-feeding or growth inhibition) at 200 ppm [4]

CC(NC(=O)c1cc(OCC(F)F)cc(C(F)(F)F)c1)c1nccnc1-c1ncc(OCC(F)F)cn1 (stereo not drawn) [Compound P32, 3-(2,2-difluoroethoxy)-N-[1-[3-[5-(2,2-difluoroethoxy)pyrimidin-2-yl]pyrazin-2-yl]ethyl]-5-(trifluoromethyl)benzamide]
≥ 80%: control at 200 ppm [2] | percent control (mortality or growth inhibition) at 200 ppm [3] | percent control (mortality, anti-feeding or growth inhibition) at 200 ppm [4]
